Data reported in ChEMBL document CHEMBL5338722, “Optical-Controlled Kinetic Switch: Fine-Tuning of the Residence Time of an Antagonist Binding to the Vasopressin V2 Receptor in In Vitro, Ex Vivo, and In Vivo Models of ADPKD” (J Med Chem, 2023).
Calls of active or inactive are those of the source. The rule behind the calls is not given here.

What was measured:
Vasopressin V2 receptor [1] = target: T1, Vasopressin V2 receptor (Homo sapiens, UniProt P30518); assay: Displacement of conivaptan-red fluorescent probe from SNAP-tagged human vasopressin V2 receptor expressed in HEK293 cells at 10 uM compound pre-illuminated for 10 mins with light at 365 nm and further incubated for 1 hr by HTRF assay relative to control; format: cell-based; conditions: filed as antagonist
T1 sequence (P30518 whole entry): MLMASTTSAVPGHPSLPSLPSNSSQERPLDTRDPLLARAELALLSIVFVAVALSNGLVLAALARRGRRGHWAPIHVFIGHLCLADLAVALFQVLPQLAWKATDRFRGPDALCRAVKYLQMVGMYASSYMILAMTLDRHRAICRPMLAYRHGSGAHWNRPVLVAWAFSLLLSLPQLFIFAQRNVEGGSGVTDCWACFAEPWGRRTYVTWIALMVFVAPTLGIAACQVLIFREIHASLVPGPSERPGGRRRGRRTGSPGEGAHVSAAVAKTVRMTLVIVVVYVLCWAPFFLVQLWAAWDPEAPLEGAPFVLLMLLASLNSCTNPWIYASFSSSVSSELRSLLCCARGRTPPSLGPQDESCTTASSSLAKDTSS

Vasopressin V2 receptor [2] = target: T1, Vasopressin V2 receptor; assay: Displacement of conivaptan-red fluorescent probe from SNAP-tagged human vasopressin V2 receptor expressed in HEK293 cells compound pre-illuminated for 10 mins with light at 365 nm and further incubated for 1 hr by HTRF assay; format: cell-based
Vasopressin V2 receptor [3] = target: T1, Vasopressin V2 receptor; assay: Displacement of conivaptan-red fluorescent probe from SNAP-tagged human vasopressin V2 receptor expressed in HEK293 cells compound pre-illuminated for 10 mins with light at 435 nm and further incubated for 1 hr by HTRF assay; format: cell-based
Vasopressin V2 receptor [4] = target: T1, Vasopressin V2 receptor; assay: Antagonist activity at human vasopressin V2 receptor expressed in CHO cells assessed as inhibition of vasopressin induced cAMP production at 10 times Ki preincubated for 30 mins followed by two consecutive washouts and irradiated with light at 435 nm during two washouts; format: functional, cell-based
Vasopressin V2 receptor [5] = target: T1, Vasopressin V2 receptor; assay: Displacement of conivaptan-red fluorescent probe from SNAP-tagged human vasopressin V2 receptor expressed in HEK293 cells assessed as residence time at IC50 by TR-FRET based competition association assay; format: cell-based; conditions: filed as antagonist
Vasopressin V2 receptor [6] = target: T1, Vasopressin V2 receptor; assay: Displacement of conivaptan-red fluorescent probe from SNAP-tagged human vasopressin V2 receptor expressed in HEK293 cells assessed as off-rate constant at IC50 by TR-FRET based competition association assay; format: cell-based; conditions: filed as antagonist
Vasopressin V2 receptor [7] = target: T1, Vasopressin V2 receptor; assay: Antagonist activity at human vasopressin V2 receptor expressed in CHO cells assessed as inhibition of vasopressin induced cAMP production at 10 times Ki preincubated for 30 mins followed by two consecutive washouts and irradiated with light at 365 nm during two washouts; format: functional, cell-based
Vasopressin V2 receptor [8] = target: T1, Vasopressin V2 receptor; assay: Displacement of conivaptan-red fluorescent probe from SNAP-tagged human vasopressin V2 receptor expressed in HEK293 cells assessed as on-rate constant at IC50 by TR-FRET based competition association assay; format: cell-based; conditions: filed as antagonist
Vasopressin V2 receptor [9] = target: T1, Vasopressin V2 receptor; assay: Displacement of conivaptan-red fluorescent probe from SNAP-tagged human vasopressin V2 receptor expressed in HEK293 cells at 10 uM compound pre-illuminated for 10 mins with light at 435 nm and further incubated for 1 hr by HTRF assay relative to control; format: cell-based

## O=C(c1ccc(/N=N\c2ccc(-c3ccccc3)cc2)cc1Cl)N1Cc2cccn2Cc2ccccc21
Vasopressin V2 receptor [1]
  inhibition: 51%

## O=C(c1ccc(/N=N\c2ccc(C(F)(F)F)cc2)cc1Cl)N1Cc2cccn2Cc2ccccc21
Vasopressin V2 receptor [2]
  Ki: 5280 nM

## Cc1cccc(/N=N\c2ccc(C(=O)N3Cc4cccn4Cc4ccccc43)c(Cl)c2)c1
Vasopressin V2 receptor [2]
  Ki: 134 nM

## O=C(c1ccc(/N=N\c2cccc(-c3ccccc3)c2)cc1Cl)N1Cc2cccn2Cc2ccccc21
Vasopressin V2 receptor [2]
  Ki: 663 nM

## O=C(c1ccc(/N=N/c2cccc(-c3ccccc3)c2)cc1Cl)N1Cc2cccn2Cc2ccccc21
Vasopressin V2 receptor [3]
  Ki: 2180 nM

## Cc1ccccc1/N=N/c1ccc(C(=O)N2Cc3cccn3Cc3ccccc32)c(Cl)c1
Vasopressin V2 receptor [3]
  Ki: 432 nM

## Cc1cccc(/N=N/c2ccc(C(=O)N3Cc4cccn4Cc4ccccc43)c(Cl)c2)c1
Vasopressin V2 receptor [3]
  Ki: 355 nM

## Cc1ccc(F)cc1C(=O)Nc1ccc(C(=O)N2Cc3cccn3Cc3ccccc32)c(Cl)c1
Vasopressin V2 receptor [4]
  inhibition: inactive
Vasopressin V2 receptor [5]
  TIME: 0.3 h
Vasopressin V2 receptor [6]
  K: 0.06 min⁻¹
Vasopressin V2 receptor [7]
  inhibition: inactive
Vasopressin V2 receptor [8]
  K: 4.6 10^7/M/min

## O=C(c1ccc(/N=N/c2ccc(-c3ccccc3)cc2)cc1Cl)N1Cc2cccn2Cc2ccccc21
Vasopressin V2 receptor [9]
  inhibition: 33%

## O=C(c1ccc(/N=N\c2ccccc2)cc1Cl)N1Cc2cccn2Cc2ccccc21
Vasopressin V2 receptor [2]
  Ki: 93 nM
